From article PMC4503722, “Novel Phenotypic Outcomes Identified for a Public Collection of Approved Drugs from a Publicly Accessible Panel of Assays” (PLoS ONE, 2015)

tested on: SNU-C1; test: cells; assay type: cell-based; conditions: assay number 30; concentration response

Compound	Basal_Viability ATP SNU-C1 IC50/EC50
CCCCCCOC(=O)c1cccnc1 [NCGC00160591-02]	> 20 µM
COC(=O)CCCCC(CCSS/C(CCO)=C(\C)N(C=O)Cc1cnc(C)nc1N)SC(C)=O (centres unmarked) [NCGC00319022-01]	> 20 µM
CC=CC1C(C(=O)OCc2c(F)c(F)c(COC)c(F)c2F)C1(C)C (centres unmarked) [NCGC00319021-01]	> 20 µM
C=CC(C)(O)CCC=C(C)CCC=C(C)C (centres unmarked) [NCGC00344526-01]	> 20 µM
CCOC(=O)/C=C(C)/C=C/C[C@@H](C)CCCC(C)C [NCGC00248275-02]	> 20 µM

same assay, conditions: basal

Compound	IC50/EC50, Basal_Viability ATP SNU-C1 (assay number 30)
CN1CCN(CCCN2c3ccccc3Sc3ccc(S(=O)(=O)N(C)C)cc32)CC1 [NCGC00179625-03]	2.1198 µM
CC1=C(/C=C/C(C)=C/C=C/C(C)=C/C(=O)Nc2ccc(O)cc2)C(C)(C)CCC1 [NCGC00090752-12]	6.6943 µM
CNS(=O)(=O)CCc1ccc2[nH]cc(C3CCN(C)CC3)c2c1.Cl [NCGC00181786-02]	> 20 µM

tested on: HT-29; test: cells; assay type: cell-based; conditions: assay number 28; concentration response

Compound	Basal_Viability ATP HT-29 IC50/EC50
CCCCCCOC(=O)c1cccnc1 [NCGC00160591-02]	> 20 µM
COC(=O)CCCCC(CCSS/C(CCO)=C(\C)N(C=O)Cc1cnc(C)nc1N)SC(C)=O (centres unmarked) [NCGC00319022-01]	> 20 µM
CC=CC1C(C(=O)OCc2c(F)c(F)c(COC)c(F)c2F)C1(C)C (centres unmarked) [NCGC00319021-01]	> 20 µM
C=CC(C)(O)CCC=C(C)CCC=C(C)C (centres unmarked) [NCGC00344526-01]	> 20 µM
CCOC(=O)/C=C(C)/C=C/C[C@@H](C)CCCC(C)C [NCGC00248275-02]	> 20 µM

same assay, conditions: basal

Compound	IC50/EC50, Basal_Viability ATP HT-29 (assay number 28)
CN1CCN(CCCN2c3ccccc3Sc3ccc(S(=O)(=O)N(C)C)cc32)CC1 [NCGC00179625-03]	> 20 µM
CC1=C(/C=C/C(C)=C/C=C/C(C)=C/C(=O)Nc2ccc(O)cc2)C(C)(C)CCC1 [NCGC00090752-12]	2.1199 µM
CNS(=O)(=O)CCc1ccc2[nH]cc(C3CCN(C)CC3)c2c1.Cl [NCGC00181786-02]	> 20 µM

tested on: RKO; test: cells; assay type: cell-based; conditions: assay number 29; concentration response

Compound	Basal_Viability ATP RKO IC50/EC50
CCCCCCOC(=O)c1cccnc1 [NCGC00160591-02]	> 20 µM
COC(=O)CCCCC(CCSS/C(CCO)=C(\C)N(C=O)Cc1cnc(C)nc1N)SC(C)=O (centres unmarked) [NCGC00319022-01]	> 20 µM
CC=CC1C(C(=O)OCc2c(F)c(F)c(COC)c(F)c2F)C1(C)C (centres unmarked) [NCGC00319021-01]	> 20 µM
C=CC(C)(O)CCC=C(C)CCC=C(C)C (centres unmarked) [NCGC00344526-01]	> 20 µM
CCOC(=O)/C=C(C)/C=C/C[C@@H](C)CCCC(C)C [NCGC00248275-02]	> 20 µM

same assay, conditions: basal

Compound	IC50/EC50, Basal_Viability ATP RKO (assay number 29)
CN1CCN(CCCN2c3ccccc3Sc3ccc(S(=O)(=O)N(C)C)cc32)CC1 [NCGC00179625-03]	5.9932 µM
CC1=C(/C=C/C(C)=C/C=C/C(C)=C/C(=O)Nc2ccc(O)cc2)C(C)(C)CCC1 [NCGC00090752-12]	1.718 µM
CNS(=O)(=O)CCc1ccc2[nH]cc(C3CCN(C)CC3)c2c1.Cl [NCGC00181786-02]	> 20 µM

tested on: endothelial tube formation in co-cultures of ECFCs and ADSCs treated with VEGF; test: cells; assay type: cell-based, human; conditions: not given

Compound	IC50/EC50, VEGF_ADSC\ECFC Angio CD31 TubeArea (assay number 2)	VEGF_ADSC\ECFC Angio CD31 TubeArea IC50/EC50
CN1CCN(CCCN2c3ccccc3Sc3ccc(S(=O)(=O)N(C)C)cc32)CC1 [NCGC00179625-03]	> 10 µM	–
CC1=C(/C=C/C(C)=C/C=C/C(C)=C/C(=O)Nc2ccc(O)cc2)C(C)(C)CCC1 [NCGC00090752-12]	1.3414 µM	–
CNS(=O)(=O)CCc1ccc2[nH]cc(C3CCN(C)CC3)c2c1.Cl [NCGC00181786-02]	> 10 µM	–
CCCCCCOC(=O)c1cccnc1 [NCGC00160591-02]	–	> 10 µM
COC(=O)CCCCC(CCSS/C(CCO)=C(\C)N(C=O)Cc1cnc(C)nc1N)SC(C)=O (centres unmarked) [NCGC00319022-01]	–	> 10 µM
CC=CC1C(C(=O)OCc2c(F)c(F)c(COC)c(F)c2F)C1(C)C (centres unmarked) [NCGC00319021-01]	–	> 10 µM
C=CC(C)(O)CCC=C(C)CCC=C(C)C (centres unmarked) [NCGC00344526-01]	–	> 10 µM
CCOC(=O)/C=C(C)/C=C/C[C@@H](C)CCCC(C)C [NCGC00248275-02]	–	> 10 µM

tested on: DLD-1; test: cells; assay type: cell-based; conditions: assay number 23; concentration response

Compound	Basal_Viability ATP DLD-1 IC50/EC50
CCCCCCOC(=O)c1cccnc1 [NCGC00160591-02]	> 20 µM
COC(=O)CCCCC(CCSS/C(CCO)=C(\C)N(C=O)Cc1cnc(C)nc1N)SC(C)=O (centres unmarked) [NCGC00319022-01]	> 20 µM
CC=CC1C(C(=O)OCc2c(F)c(F)c(COC)c(F)c2F)C1(C)C (centres unmarked) [NCGC00319021-01]	> 20 µM
C=CC(C)(O)CCC=C(C)CCC=C(C)C (centres unmarked) [NCGC00344526-01]	> 20 µM
CCOC(=O)/C=C(C)/C=C/C[C@@H](C)CCCC(C)C [NCGC00248275-02]	> 20 µM

same assay, conditions: basal

Compound	IC50/EC50, Basal_Viability ATP DLD-1 (assay number 23)
CN1CCN(CCCN2c3ccccc3Sc3ccc(S(=O)(=O)N(C)C)cc32)CC1 [NCGC00179625-03]	14.5523 µM
CC1=C(/C=C/C(C)=C/C=C/C(C)=C/C(=O)Nc2ccc(O)cc2)C(C)(C)CCC1 [NCGC00090752-12]	9.4899 µM
CNS(=O)(=O)CCc1ccc2[nH]cc(C3CCN(C)CC3)c2c1.Cl [NCGC00181786-02]	> 20 µM

tested on: HCT116; test: cells; assay type: cell-based; conditions: assay number 25; basal; concentration response

Compound	Basal_Viability ATP HCT116 IC50/EC50
CCCCCCOC(=O)c1cccnc1 [NCGC00160591-02]	> 20 µM
COC(=O)CCCCC(CCSS/C(CCO)=C(\C)N(C=O)Cc1cnc(C)nc1N)SC(C)=O (centres unmarked) [NCGC00319022-01]	> 20 µM
CC=CC1C(C(=O)OCc2c(F)c(F)c(COC)c(F)c2F)C1(C)C (centres unmarked) [NCGC00319021-01]	> 20 µM
C=CC(C)(O)CCC=C(C)CCC=C(C)C (centres unmarked) [NCGC00344526-01]	> 20 µM
CCOC(=O)/C=C(C)/C=C/C[C@@H](C)CCCC(C)C [NCGC00248275-02]	> 20 µM

same assay, conditions: basal

Compound	IC50/EC50, Basal_Viability ATP HCT116 (assay number 25)
CN1CCN(CCCN2c3ccccc3Sc3ccc(S(=O)(=O)N(C)C)cc32)CC1 [NCGC00179625-03]	> 20 µM
CC1=C(/C=C/C(C)=C/C=C/C(C)=C/C(=O)Nc2ccc(O)cc2)C(C)(C)CCC1 [NCGC00090752-12]	5.2999 µM
CNS(=O)(=O)CCc1ccc2[nH]cc(C3CCN(C)CC3)c2c1.Cl [NCGC00181786-02]	> 20 µM

tested on: SW480; test: cells; assay type: cell-based; conditions: assay number 24; concentration response

Compound	Basal_Viability ATP SW480 IC50/EC50
CCCCCCOC(=O)c1cccnc1 [NCGC00160591-02]	> 20 µM
COC(=O)CCCCC(CCSS/C(CCO)=C(\C)N(C=O)Cc1cnc(C)nc1N)SC(C)=O (centres unmarked) [NCGC00319022-01]	> 20 µM
CC=CC1C(C(=O)OCc2c(F)c(F)c(COC)c(F)c2F)C1(C)C (centres unmarked) [NCGC00319021-01]	> 20 µM
C=CC(C)(O)CCC=C(C)CCC=C(C)C (centres unmarked) [NCGC00344526-01]	> 20 µM
CCOC(=O)/C=C(C)/C=C/C[C@@H](C)CCCC(C)C [NCGC00248275-02]	> 20 µM

same assay, conditions: basal

Compound	IC50/EC50, Basal_Viability ATP SW480 (assay number 24)
CN1CCN(CCCN2c3ccccc3Sc3ccc(S(=O)(=O)N(C)C)cc32)CC1 [NCGC00179625-03]	> 20 µM
CC1=C(/C=C/C(C)=C/C=C/C(C)=C/C(=O)Nc2ccc(O)cc2)C(C)(C)CCC1 [NCGC00090752-12]	4.8504 µM
CNS(=O)(=O)CCc1ccc2[nH]cc(C3CCN(C)CC3)c2c1.Cl [NCGC00181786-02]	> 20 µM

tested on: HCT116 cells treated with a GSK3β inhibitor; test: cells; assay type: cell-based; conditions: GSK3b inh pretreated

Compound	IC50/EC50, GSK3b inh pretreated_Viability ATP HCT116 (assay number 26)
CN1CCN(CCCN2c3ccccc3Sc3ccc(S(=O)(=O)N(C)C)cc32)CC1 [NCGC00179625-03]	> 20 µM
CC1=C(/C=C/C(C)=C/C=C/C(C)=C/C(=O)Nc2ccc(O)cc2)C(C)(C)CCC1 [NCGC00090752-12]	4.9507 µM
CNS(=O)(=O)CCc1ccc2[nH]cc(C3CCN(C)CC3)c2c1.Cl [NCGC00181786-02]	12.1308 µM

same assay, conditions: assay number 26; GSK3b inhibitor pretreated; concentration response

Compound	GSK3b inh pretreated_Viability ATP HCT116 IC50/EC50
CCCCCCOC(=O)c1cccnc1 [NCGC00160591-02]	> 20 µM
COC(=O)CCCCC(CCSS/C(CCO)=C(\C)N(C=O)Cc1cnc(C)nc1N)SC(C)=O (centres unmarked) [NCGC00319022-01]	> 20 µM
CC=CC1C(C(=O)OCc2c(F)c(F)c(COC)c(F)c2F)C1(C)C (centres unmarked) [NCGC00319021-01]	> 20 µM
C=CC(C)(O)CCC=C(C)CCC=C(C)C (centres unmarked) [NCGC00344526-01]	> 20 µM
CCOC(=O)/C=C(C)/C=C/C[C@@H](C)CCCC(C)C [NCGC00248275-02]	> 20 µM

tested on: ECFC/ADSC co-culture cell nuclei number; test: not given; conditions: not given

Compound	IC50/EC50, VEGF_ADSC\ECFC Angio Hoechst NucArea (assay number 3)	VEGF_ADSC\ECFC Angio Hoechst NucArea IC50/EC50
CN1CCN(CCCN2c3ccccc3Sc3ccc(S(=O)(=O)N(C)C)cc32)CC1 [NCGC00179625-03]	> 10 µM	–
CC1=C(/C=C/C(C)=C/C=C/C(C)=C/C(=O)Nc2ccc(O)cc2)C(C)(C)CCC1 [NCGC00090752-12]	6.2365 µM	–
CNS(=O)(=O)CCc1ccc2[nH]cc(C3CCN(C)CC3)c2c1.Cl [NCGC00181786-02]	> 10 µM	–
CCCCCCOC(=O)c1cccnc1 [NCGC00160591-02]	–	> 10 µM
COC(=O)CCCCC(CCSS/C(CCO)=C(\C)N(C=O)Cc1cnc(C)nc1N)SC(C)=O (centres unmarked) [NCGC00319022-01]	–	> 10 µM
CC=CC1C(C(=O)OCc2c(F)c(F)c(COC)c(F)c2F)C1(C)C (centres unmarked) [NCGC00319021-01]	–	> 10 µM
C=CC(C)(O)CCC=C(C)CCC=C(C)C (centres unmarked) [NCGC00344526-01]	–	> 10 µM
CCOC(=O)/C=C(C)/C=C/C[C@@H](C)CCCC(C)C [NCGC00248275-02]	–	> 10 µM

tested on: Colo320; test: cells; assay type: cell-based; conditions: assay number 27; concentration response

Compound	Basal_Viability ATP Colo 320 IC50/EC50
CCCCCCOC(=O)c1cccnc1 [NCGC00160591-02]	> 20 µM
COC(=O)CCCCC(CCSS/C(CCO)=C(\C)N(C=O)Cc1cnc(C)nc1N)SC(C)=O (centres unmarked) [NCGC00319022-01]	> 20 µM
CC=CC1C(C(=O)OCc2c(F)c(F)c(COC)c(F)c2F)C1(C)C (centres unmarked) [NCGC00319021-01]	> 20 µM
C=CC(C)(O)CCC=C(C)CCC=C(C)C (centres unmarked) [NCGC00344526-01]	10.2751 µM
CCOC(=O)/C=C(C)/C=C/C[C@@H](C)CCCC(C)C [NCGC00248275-02]	> 20 µM

same assay, conditions: basal

Compound	IC50/EC50, Basal_Viability ATP Colo 320 (assay number 27)
CN1CCN(CCCN2c3ccccc3Sc3ccc(S(=O)(=O)N(C)C)cc32)CC1 [NCGC00179625-03]	8.1661 µM
CC1=C(/C=C/C(C)=C/C=C/C(C)=C/C(=O)Nc2ccc(O)cc2)C(C)(C)CCC1 [NCGC00090752-12]	3.2421 µM
CNS(=O)(=O)CCc1ccc2[nH]cc(C3CCN(C)CC3)c2c1.Cl [NCGC00181786-02]	> 20 µM
